In general, IC50 refers to the concentration that gives 50% inhibition.

The results in this text go back to patent publication US9938292B2 (GUANGDONG ZHONGSHENG PHARMACEUTICAL CO., LTD, priority 2014, dated 2018).

The assay relates to Hedgehog signaling pathway. In words: Gli-Luc luciferase reporter gene assay in C3H10T1/2/Gli-Luc cells under Shh-N stimulation. The format is cell-based. Particulars: Mus musculus, C3H 10T1/2, 24 h, luciferase RLU, read-out: biological activity: IC50 of the inhibitory activities of compounds on the hedgehog pathway. A digest of the protocol:
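C3H10T1/2 cells stably carrying a Gli-responsive luciferase reporter were stimulated with 30 nM Shh-N conditioned medium plus compound (7-point dilutions, duplicate) for 24 h at 37 °C. Luciferase luminescence read from lysates; IC50 by sigmoidal fit of RLU versus log concentration.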
A general note: A reporter such as luciferase makes a cellular process visible.
Turning to `Cc1c(-c2ccc(N3C[C@@H](C)O[C@@H](C)C3)nc2)cnc2c(-c3ccc(C#N)cc3)cccc12` [Embodiment 132, 4-(3-(6-((2S,6R)-2,6-dimethylmorpholino)pyridin-3-yl)-4-methylquinolin-8-yl) benzonitrile], the IC50 was no more than 50 nM.
For `COc1c(-c2ccc(N3C[C@@H](C)O[C@@H](C)C3)cc2)cnc2c(-c3ccc(C#N)cc3C)cccc12` [Embodiment 105], the IC50 is no more than 50 nM.
The value for `C[C@@H]1CN(c2ccc(-n3ccc4c(-c5ccc(OC(F)(F)F)cc5)cccc4c3=O)cc2)C[C@H](C)O1` [Embodiment 75] was 1000 to 5000 nM; that for `Cc1cn(-c2ccc(N3CC(C)N(S(C)(=O)=O)C(C)C3)cc2)c(=O)c2cccc(-c3ccc(C#N)cc3)c12` (centres unmarked) [Embodiment 31] was 100 to 500 nM; that for `Cc1cn(-c2ccc(N3C[C@@H](C)O[C@@H](C)C3)cc2)c(=O)c2cncc(-c3ccc(C#N)cc3)c12` [Embodiment 86, 4-(7-(4-((2S,6R)-2,6-dimethylmorpholino)phenyl)-5-methyl-8-oxo-7,8-dihydro-2,7-naphthyridin-4-yl)benzonitrile] was 500 to 1000 nM.
With `CCC(=O)N1[C@H](C)CN(c2ccc(-c3cnc4c(-c5ccc(C#N)cc5C)cccc4c3OC)cn2)C[C@@H]1C` [Embodiment 202], the IC50 is no more than 50 nM.
The result for `CCC(=O)N1CCN(c2ccc(-n3cc(C)c4c(-c5ccc(C#N)cc5)cccc4c3=O)cc2)CC1C` (centres unmarked) [Embodiment 17] reads 50 to 100 nM; that for `C[C@@H]1CN(c2ccc(-c3cnc4c(-c5ccc(C#N)cc5)cncc4c3N(C)C)cc2)C[C@H](C)O1` [Embodiment 155, 4-(4-(dimethylamino)-3-(4-((2S,6R)-2,6-dimethylmorpholino)phenyl)-1,6-naphthyridin-8-yl)benzonitrile], 100 to 500 nM.
For `Cc1cn(-c2ccc(N3CC(C)N(C(=O)C(C)C)C(C)C3)cc2)c(=O)c2cccc(-c3ccc(C#N)cc3)c12` (centres unmarked) [Embodiment 24], the IC50 was 50 to 100 nM.
The value for `CC1CN(c2ccc(N3C[C@@H](C)O[C@@H](C)C3)cc2)C(=O)c2cccc(-c3ccc(C#N)cc3)c21` (stereo partly drawn) [Embodiment 87, 4-(2-(4-((2S,6R)-2,6-dimethylmorpholino)phenyl)-4-methyl-1-oxo-1,2,3,4-tetrahydroisoquinolin-5-yl)benzonitrile] was 100 to 500 nM; that for `CCC(=O)N1[C@H](C)CN(c2ccc(-c3nc4c(-c5ccc(C#N)cc5)cccc4[nH]3)cn2)C[C@@H]1C` [Embodiment 250, 4-(2-(6-(3,5-dimethyl-4-propionylpiperazin-1-yl)pyridin-3-yl)-1H-benzo[d]imidazol-4-yl)benzonitrile] was 100 to 500 nM.
The result for `Cc1cn(-c2ccc(N3C[C@@H](C)O[C@@H](C)C3)cc2)c(=O)c2cccc(-c3ccc(C#N)cc3)c12` [Embodiment 52] reads 100 to 500 nM.
Consider `C[C@@H]1CN(c2ccc(-c3cnc4c(-c5ccc(C#N)cc5)cncc4c3Cl)cc2)C[C@H](C)O1` [Embodiment 153, 4-(4-chloro-3-(4-((2S,6R)-2,6-dimethylmorpholino)phenyl)-1,6-naphthyridin-8-yl) benzonitrile], for which the IC50 was 100 to 500 nM.
The result for `COc1c(-c2ccc(N3C[C@@H](C)O[C@@H](C)C3)c(Cl)c2)cnc2c(-c3ccc(C#N)cc3)cccc12` [Embodiment 173] reads 100 to 500 nM.
